Data reported in patent publication US11390617B2, “Methods of treating non-Hodgkin lymphoma using 2-(2,6-dioxopiperidin-3-yl)-4-((2-fluoro-4-((3-morpholinoazetidin-1-yl)methyl)benzyl)amino)isoindoline-1,3-dione” (Celgene Corporation, priority 2019, dated 2022).

Test system: RL follicular lymphoma xenograft tumors
Assay: RL (follicular lymphoma) xenograft model, alone and in combination with rituximab
Type: in vivo, female SCID mice
Conditions: Compound 1 0.3 mg/kg oral, 5 days on 2 days off for 3 weeks, single agent
Method: Female 6- to 8-weeks-old CB17 SCID mice were obtained from Charles River Laboratories. Mice were housed in a barrier facility in micro-isolator cages at 10 animals per cage. Mice were fed with Harlan-Teklad LM-485 Mouse/Rat Sterilizable Diet and autoclaved water ad libitum and maintained on a 12 hours light-dark cycle. Animals were acclimatized to the animal housing facility for a period of 7 days before the beginning of the experiment. All animal studies were performed under protocols approved by Institutional Animal Care and Use Committees.
Suspensions of Compound 1 were pared in aqueous 0.5% Methyl Cellulose, 0.25% Tween 80 and 50 mM Citrate pH 3. […]
Tumor cells were injected subcutaneously in the flank region above the right hind legs of female CB17 SCID mice. […] Tumor volumes were determined before the initiation of treatment and were considered as the starting volumes. Tumors were measured twice a week for the duration of the study. The long and short axes of each tumor were measured using a digital caliper in millimeters. The tumor volumes were calculated using the formula: width^2×length/2. […]
Xenograft data are expressed as mean±SEM. […]
Xenograft study was conducted with female SCID mice bearing RL follicular lymphoma xenograft tumors. […] Tumors were measured twice a week using calipers and tumor volumes were calculated using the formula of W^2×L/2. […]

O=C1CC[C@H](N2C(=O)c3cccc(NCc4ccc(CN5CC(N6CCOCC6)C5)cc4F)c3C2=O)C(=O)N1 [Compound 1, (S)-2-(2,6-dioxopiperidin-3-yl)-4-((2-fluoro-4-((3-morpholinoazetidin-1-yl)methyl)benzyl)amino)isoindoline-1,3-dione]
tumor volume reduction: 36%
